This is an account of results in patent publication US20250127905A1, “GLUTARIMIDE COMPOUND AND USE THEREOF” (MEDSHINE DISCOVERY INC., priority 2021, published 2025).

Broadly, the clearance is a measure of how efficiently the substance is removed, as volume per time. High values mean a high capacity for elimination, low ones a low capacity for elimination. As usually defined, the half-life is the time needed for the level to fall by half in the phase considered. Usually bioavailability stands for the share of a dose that reaches the circulation, judged against a reference dose that is usually intravenous.

Structures can show the parent of a compound that is named as a salt.

The data set can be described thus: Pharmacokinetic evaluation in Beagles. Type of data set: in vivo. The protocol: In this study, male Beagles were selected as test animals, and LC/MS/MS method was used to quantify plasma concentrations of the test compound intravenously injected or intragastrically administered to Beagles at different time points, so as to evaluate the pharmacokinetic profile of the test drug in Beagles.
• Beagles (male, 9 to 11 kg, Jiangsu Yadong Institute of Experimental Animals Co., Ltd.).
A clarified solution or suspension of the test compound was injected into Beagles (feeding) via the tail vein (vehicle: 5% DMSO/10% Solutol/85% H2O), or intragastrically administered into Beagles (feeding). For intravenous injection, 1 mL of blood was collected from the forelimb vein at 0 h (pre-administration) and 0.083 h, 0.25 h, 0.5 h, 1 h, 2 h, 4 h, 6 h, 8 h, and 24 h after administration, and anticoagulated with EDTA-2K. The mixture was thoroughly vortexed and mixed, and centrifuged at 6000 g for 3 minutes at 2 to 8° C. For oral administration, 1 mL of blood was collected from the forelimb vein at 0 h (pre-administration) and 0.083 h, 0.25 h, 0.5 h, 1 h, 2 h, 4 h, 6 h, 8 h, and 24 h after administration, and anticoagulated with EDTA-2K. The mixture was thoroughly vortexed and mixed, and centrifuged at 6000 g for 3 minutes at 2 to 8° C. Plasma concentrations were determined by LC-MS/MS method, and relevant pharmacokinetic parameters were calculated using Phoenix WinNonlin 8.2.0 pharmacokinetic software with non-compartmental model linear-log trapezoidal method.

Setting [1] is: Intragastric administration (3 mg/kg).

Turning to `O=C1CCC(c2noc3c(NC(=O)CN4CCN(C[C@H]5CC[C@H](n6cc(NC(=O)c7cnn8ccc(N9C[C@H]%10C[C@@H]9CO%10)nc78)c(C(F)F)n6)CC5)CC4)cccc23)C(=O)N1` (some centres unmarked) [Hydrochloride of WX015], under setting [1], the “Area under the drug-time curve (0-inf)” value came to 1.13 µM·h, the Peak concentration came out at 0.12 µM and the “Time to peak concentration” value worked out at 4.67 h. The “Area under the drug-time curve (0-inf)” value (Intravenous injection (0.5 mg/kg)) was 0.27 µM·h. In addition, the clearance (male, beagle, dog, plasma, Intravenous injection (0.5 mg/kg)) worked out at 37.5 mL/min/kg. The Vd (male, beagle, dog, plasma, Intravenous injection (0.5 mg/kg), read-out: Apparent volume of distribution) was 8.44 L/kg. The half-life (male, beagle, dog, plasma, Intravenous injection (0.5 mg/kg), read-out: Elimination half-life (converted)) was 2.93 h. For the same molecule, the bioavailability (male, beagle, dog, plasma, oral, IV 0.5 mg/kg, intragastric 3 mg/kg, read-out: Bioavailability F) was determined as 70.3%.
